Reference: US8178530B2, “Imidazolopyrazine compounds useful for the treatment of degenerative and inflammatory diseases” (Janssen Pharmaceutica NV, priority 2006, dated 2012)

Tests used:
MMP1 expression by SFs = assay: 'MMP assay': MMP1 expression by 'complex trigger' activated synovial fibroblasts (MMP1 ELISA); assay type: cell-based, human; settings: RASFs, 48 hrs
MAPKAPK5 = target: T1, MAPKAPK5 (Homo sapiens, UniProt Q8IW41); assay: MAPKAP-K5 assay (FlashPlate, 33P-ATP); assay type: biochemical; settings: 0.6 μM ATP, 30 minutes at room temperature
T1 construct: 1 mU MAPKAP-K5
T1 sequence (Q8IW41 1-473): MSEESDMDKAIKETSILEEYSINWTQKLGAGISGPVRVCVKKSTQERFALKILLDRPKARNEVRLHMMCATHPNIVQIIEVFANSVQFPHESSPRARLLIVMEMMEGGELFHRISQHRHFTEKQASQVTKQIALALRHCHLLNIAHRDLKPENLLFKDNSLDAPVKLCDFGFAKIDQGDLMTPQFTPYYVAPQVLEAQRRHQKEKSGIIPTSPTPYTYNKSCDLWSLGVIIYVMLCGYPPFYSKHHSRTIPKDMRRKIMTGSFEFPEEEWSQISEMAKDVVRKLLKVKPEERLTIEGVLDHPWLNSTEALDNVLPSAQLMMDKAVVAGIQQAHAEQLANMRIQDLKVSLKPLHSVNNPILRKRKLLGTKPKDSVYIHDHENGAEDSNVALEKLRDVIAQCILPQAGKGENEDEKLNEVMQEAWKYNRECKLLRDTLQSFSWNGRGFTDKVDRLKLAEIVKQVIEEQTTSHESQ
Description: 3 μM MAPKAP-K5 peptide substrate

IC50 (MAPKAPK5) [nM]	Compound	EC50 (MMP1 expression by SFs; Homo sapiens, Fibroblast) [nM]	EC50 (MMP1 expression by SFs) [nM]
101 to 500	CC(C)N1CCN(c2ccc(Nc3ncc(-c4coc(C(N)=O)c4)n4ccnc34)cc2)CC1 [Compound 204, 4-{8-[4-(4-Isopropyl-piperazin-1-yl)-phenylamino]-imidazo[1,2-a]pyrazin-5-yl}-furan-2-carboxylic acid amide]	501 to 1000	–
> 1000	NC(=O)c1ccc(-c2cnc(Nc3ccc(N4CCCCC4)cc3)c3nccn23)cc1 [Compound 144]	101 to 500	–
> 1000	c1cn2c(-c3c[nH]cn3)cnc(Nc3ccc(N4CCOCC4)cc3)c2n1 [Compound 163]	> 1000	–
101 to 500	O=C1NCc2cc(-c3cnc(Nc4cccnc4)c4nccn34)ccc21 [Compound 197]	501 to 1000	–
101 to 500	CCN(CC)CCNC(=O)c1ccc(Nc2ncc(-c3cn[nH]c3)n3ccnc23)c(F)c1 [Compound 83]	> 1000	–
> 1000	CN(C)c1ccc(CNC(=O)c2ccc(Nc3ncc(-c4cn[nH]c4)n4ccnc34)cc2)cc1 [Compound 89]	501 to 1000	–
101 to 500	Cc1[nH]ncc1-c1cnc(Nc2ccc(N3CCN(C)CC3)cc2)c2nccn12 [Compound 119, (4-(4-Methylpiperazin-1-yl)phenyl)-[5-(5-methyl-1H-pyrazol-4-yl)imidazo[1,2-a]pyrazin-8-yl]amine]	> 1000	–
> 1000	NC(=O)c1c(F)cc(-c2cnc(Nc3ccc(N4CCOCC4)cc3)c3nccn23)cc1F [Compound 165]	> 1000	–
501 to 1000	CC(C)N1CCN(c2ccc(Nc3ncc(-c4cc(F)c(C(N)=O)c(F)c4)n4ccnc34)cc2)CC1 [Compound 193]	501 to 1000	–
1 to 100	C[C@@H]1CN(c2ccc(Nc3ncc(-c4cc(C(N)=O)co4)n4ccnc34)cc2)[C@@H](C)CN1C [Compound 187]	101 to 500	–
1 to 100	CC(C)N1CCN(c2ccc(Nc3ncc(-c4ccc5c(c4)CNC5=O)n4ccnc34)cn2)CC1 [Compound 210, 5-{8-[6-(4-Isopropyl-piperazin-1-yl)-pyridin-3-ylamino]-imidazo[1,2-a]pyrazin-5-yl}-2,3-dihydro-isoindol-1-one]	501 to 1000	–
> 1000	CN(C)Cc1cc(Nc2ncc(-c3cn[nH]c3)n3ccnc23)ccc1N1CCOCC1 [Compound 218, (3-Dimethylaminomethyl-4-morpholin-4-yl-phenyl)-[5-(1H-pyrazol-4-yl)-imidazo[1,2-a]pyrazin-8-yl]-amine]	> 1000	–
> 1000	NC(=O)c1ccc(-c2cnc(Nc3ccc(-c4cccnc4)cc3)c3nccn23)cc1 [Compound 153]	101 to 500	–
501 to 1000	NC(=O)c1ccc(-c2cnc(Nc3ccc(N4CCN(CCO)CC4)cc3)c3nccn23)cc1 [Compound 156]	101 to 500	–
101 to 500	CCNCCNC(=O)c1ccc(Nc2ncc(-c3cn[nH]c3)n3ccnc23)cc1 [Compound 56]	> 1000	–
101 to 500	O=C(NCCc1cccnc1)c1ccc(Nc2ncc(-c3cn[nH]c3)n3ccnc23)cc1 [Compound 93]	> 1000	–
101 to 500	NC(=O)c1ccc(Nc2ncc(-c3cn[nH]c3)n3ccnc23)cc1 [Compound 11]	> 1000	–

IC50 (MAPKAPK5) [nM]	Compound	EC50 (MMP1 expression by SFs; Homo sapiens, Fibroblast) [nM]	EC50 (MMP1 expression by SFs) [nM]
1 to 100	CN1CCN(c2ccc(Nc3ncc(-c4cc(C(N)=O)co4)n4ccnc34)cc2)CC1 [Compound 151]	101 to 500	–
101 to 500	CCN(CC)CCNC(=O)c1ccc(Nc2ncc(-c3cn[nH]c3)n3ccnc23)cc1 [Compound 32, N-(2-Diethylamino-ethyl)-4-[5-(1H-pyrazol-4-yl)-imidazo[1,2-a]pyrazin-8-ylamino]-benzamide]	> 1000	–
> 1000	CN1CCN(c2ccc(Nc3ncc(-c4ccnc(F)c4)n4ccnc34)cc2)CC1 [Compound 125, [5-(2-Fluoro-pyridin-4-yl)-imidazo[1,2-a]pyrazin-8-yl]-[4-(4-methyl-piperazin-1-yl)-phenyl]-amine]	> 1000	–
> 1000	NC(=O)c1ncc(-c2cnc(Nc3ccc(N4CCOCC4)cc3)c3nccn23)s1 [Compound 173, 5-[8-(4-Morpholin-4-yl-phenylamino)-imidazo[1,2-a]pyrazin-5-yl]-thiazole-2-carboxylic acid amide]	> 1000	–
501 to 1000	O=C(NCc1cccnc1)c1ccc(Nc2ncc(-c3cn[nH]c3)n3ccnc23)cc1 [Compound 35]	> 1000	–
101 to 500	C[C@@H]1CN(c2ccc(Nc3ncc(-c4cc(F)c(C(N)=O)c(F)c4)n4ccnc34)cc2)[C@@H](C)CN1C [Compound 181]	> 1000	–
> 1000	c1cn(-c2ccc(Nc3ncc(-c4cn[nH]c4)n4ccnc34)cc2)cn1 [Compound 168, (4-Imidazol-1-yl-phenyl)-[5-(1H-pyrazol-4-yl)-imidazo[1,2-a]pyrazin-8-yl]-amine]	> 1000	–
101 to 500	O=C(NC1CCNC1)c1ccc(Nc2ncc(-c3cn[nH]c3)n3ccnc23)cc1 (stereo not shown) [Compound 55]	> 1000	–
101 to 500	CN1CCN(c2ccc(Nc3ncc(-c4ccc(C(N)=O)cc4)n4ccnc34)cc2Cl)CC1 [Compound 136, 4-{8-[3-Chloro-4-(4-methyl-piperazin-1-yl)-phenylamino]-imidazo[1,2-a]pyrazin-5-yl}-benzamide]	> 1000	–
> 1000	CN1CCN(c2ccc(Nc3ncc(-c4ccc(C(N)=O)o4)n4ccnc34)cc2)CC1 [Compound 139, 5-{8-[4-(4-Methyl-piperazin-1-yl)-phenylamino]-imidazo[1,2-a]pyrazin-5-yl}-furan-2-carboxylic acid amide]	> 1000	–
101 to 500	C[C@@H]1CN(c2ccc(Nc3ncc(-c4csc(C(N)=O)c4)n4ccnc34)cc2)[C@@H](C)CN1C [Compound 186]	501 to 1000	–
101 to 500	CN1CCC(NC(=O)c2ccc(Nc3ncc(-c4cn[nH]c4)n4ccnc34)cc2)C1 (stereo not shown) [Compound 64]	> 1000	–
101 to 500	CN(C)C(CNC(=O)c1ccc(Nc2ncc(-c3cc[nH]c(=O)c3)n3ccnc23)cc1)c1cccnc1 (stereo not shown) [Compound 114]	> 1000	–
1 to 100	CC(C)N1CCN(c2ccc(Nc3ncc(-c4ccc5c(c4)CNC5=O)n4ccnc34)cc2)CC1 [Compound 205, 5-{8-[4-(4-Isopropyl-piperazin-1-yl)-phenylamino]-imidazo[1,2-a]pyrazin-5-yl}-2,3-dihydro-isoindol-1-one]	> 1000	–
> 1000	CN1CCN(c2ccc(Nc3ncc(-c4ccc(C(N)=O)cn4)n4ccnc34)cc2)CC1 [Compound 128]	> 1000	–
> 1000	Cc1oc(-c2cnc(Nc3ccc(N4CCOCC4)cc3)c3nccn23)cc1C(N)=O [Compound 188]	501 to 1000	–
101 to 500	CS(=O)(=O)c1ccc(Nc2ncc(-c3cn[nH]c3)n3ccnc23)cc1 [Compound 71]	> 1000	–

Compound	IC50 (MAPKAPK5) [nM]	EC50 (MMP1 expression by SFs; Homo sapiens, Fibroblast) [nM]	EC50 (MMP1 expression by SFs) [nM]
4-(8-{4-[1-(2,2,2-Trifluoroethyl)piperidin-4-yl]phenylamino}imidazo[1,2-a]pyrazin-5-yl)thiophene-2-carboxylic acid amide [Compound 192]	1 to 100	–	501 to 1000
